Measurements as given in ChEMBL document CHEMBL4483862, “Open-source discovery of chemical leads for next-generation chemoprotective antimalarials” (2018).
pIC50: −log10 of the molar value.

Tested on: Plasmodium berghei
Experiment: Luciferase/luciferin-expressing antifolate-resistant parasites were used to infect a culture of HepG2 cells that were pre-incubated with compounds. Infected hepatocytes emit light due to the luciferase reaction. Assay results are presented as the percent inhibition of light emission compared to control. […]
Assay type: functional
Settings: sporozoite; for IC90: read-out: LUCIFERASE INFECTION ASSAY - IC90

## Cc1ccc(-n2c(C)cc(C(=O)COC(=O)c3cccnc3O)c2C)cc1C
PBLUC_HILL_SLOPE 1.34, PBLUC_R_SQUARED 0.562, read-out: LUCIFERASE INFECTION ASSAY - IC50
  pIC50: 5.89
  IC90: 6.62 µM

## O=C(Nc1ccc(N2CCCCCC2)cc1)c1ccc[nH]1
PBLUC_HILL_SLOPE 1.36, PBLUC_R_SQUARED 0.768, read-out: LUCIFERASE INFECTION ASSAY - IC50
  pIC50: 6.24
  IC90: 2.88 µM

## CCOC(=O)c1cnn(-c2ccc(Cc3ccc(-n4ncc(C(=O)OCC)c4C)cc3)cc2)c1C
PBLUC_HILL_SLOPE 1.32, PBLUC_R_SQUARED 0.439, read-out: LUCIFERASE INFECTION ASSAY - IC50
  pIC50: 5.69
  IC90: > 6.98 µM

## CN(C)CCNc1ccnc2c(-c3ccccc3Oc3ccccc3)cnn12
PBLUC_HILL_SLOPE 1.31, PBLUC_R_SQUARED 0.651, read-out: LUCIFERASE INFECTION ASSAY - IC50
  pIC50: 5.29
  IC90: > 8.84 µM

## CNc1nc2cnc(Nc3ccc(OC(C)C)cc3)cc2n1-c1cc(OC)c(OC)c(OC)c1
PBLUC_HILL_SLOPE 1.37, PBLUC_R_SQUARED 0.322, read-out: LUCIFERASE INFECTION ASSAY - IC50
  pIC50: 5.23
  IC90: > 10 µM

## O=C(Nc1ccccc1)Nc1ccccc1Sc1nccc(C(F)(F)F)n1
PBLUC_HILL_SLOPE 1.34, PBLUC_R_SQUARED 0.717, read-out: LUCIFERASE INFECTION ASSAY - IC50
  pIC50: 5.80
  IC90: 8.05 µM

## O=[N+]([O-])c1ccc(Oc2c(Cl)cc(Cl)cc2Cl)cc1
PBLUC_HILL_SLOPE 1.34, PBLUC_R_SQUARED 0.555, read-out: LUCIFERASE INFECTION ASSAY - IC50
  pIC50: 5.43
  IC90: > 10.4 µM

## Clc1cccc(-c2cnn3c(NCCCN4CCOCC4)ccnc23)c1
PBLUC_HILL_SLOPE 1.37, PBLUC_R_SQUARED 0.567, read-out: LUCIFERASE INFECTION ASSAY - IC50
  pIC50: 5.44
  IC90: > 8.87 µM

## CC(C)Nc1cc(-c2ccccc2)nc2c(-c3ccccc3)cnn12
PBLUC_HILL_SLOPE 1.35, PBLUC_R_SQUARED 0.594, read-out: LUCIFERASE INFECTION ASSAY - IC50
  pIC50: 5.70
  IC90: > 10 µM

## Cc1ccc(OCC(=O)Nc2cc(NC(=O)c3ccco3)ccc2C)c(C)c1
PBLUC_HILL_SLOPE 1.36, PBLUC_R_SQUARED 0.771, read-out: LUCIFERASE INFECTION ASSAY - IC50
  pIC50: 5.79
  IC90: 8.08 µM

## CCOc1ccc(C(C)=O)cc1CSc1nc2scc(-c3ccccc3)c2c(=O)n1C
PBLUC_HILL_SLOPE 1.32, PBLUC_R_SQUARED 0.21, read-out: LUCIFERASE INFECTION ASSAY - IC50
  pIC50: < 5.00
  IC90: > 10 µM

## COc1cc(-c2cc3[nH]c4ccccc4n3c(=O)c2Sc2ccc([N+](=O)[O-])cc2)cc(OC)c1OC
PBLUC_HILL_SLOPE 1.34, PBLUC_R_SQUARED 0.513, read-out: LUCIFERASE INFECTION ASSAY - IC50
  pIC50: 5.75
  IC90: 9.18 µM

## CCOC(=O)/C(=N\Nc1cccc(C(F)(F)F)c1)NC(C)c1ccccc1 (stereo not given)
PBLUC_HILL_SLOPE 1.36, PBLUC_R_SQUARED 0.117, read-out: LUCIFERASE INFECTION ASSAY - IC50
  pIC50: < 5.00
  IC90: > 10 µM

## O=C(Nc1ccc([N+](=O)[O-])cc1Br)C(Nc1ccc2c(c1)OCCO2)c1ccccc1 (stereo not given)
PBLUC_HILL_SLOPE 1.35, PBLUC_R_SQUARED 0.497, read-out: LUCIFERASE INFECTION ASSAY - IC50
  pIC50: 5.60
  IC90: > 10 µM

## O=C(NNC(=O)c1sccc1OCc1ncc(C(F)(F)F)cc1Cl)c1ccccc1
PBLUC_HILL_SLOPE 1.3, PBLUC_R_SQUARED 0.614, read-out: LUCIFERASE INFECTION ASSAY - IC50
  pIC50: 5.38
  IC90: > 7.24 µM

## Cc1c(C)n(CCCN(C)C)c2ncn3nc(-c4ccc(N(C)C)cc4)nc3c12
PBLUC_HILL_SLOPE 1.37, PBLUC_R_SQUARED 0.575, read-out: LUCIFERASE INFECTION ASSAY - IC50
  pIC50: 5.43
  IC90: > 8.43 µM

## COCCCn1c(SCc2ccc(C)cc2)nnc1-c1ccc(C(C)(C)C)cc1
PBLUC_HILL_SLOPE 1.28, PBLUC_R_SQUARED 0.571, read-out: LUCIFERASE INFECTION ASSAY - IC50
  pIC50: < 5.09
  IC90: > 8.06 µM

## CCCc1cc(-n2ccnc2)n2ncc(-c3ccccc3)c2n1
PBLUC_HILL_SLOPE 1.29, PBLUC_R_SQUARED 0.543, read-out: LUCIFERASE INFECTION ASSAY - IC50
  pIC50: 5.23
  IC90: > 10.9 µM

## CN1CCN(c2ccc(Cl)cc2NC(=O)c2cccc(Oc3ccccc3)c2)CC1
PBLUC_HILL_SLOPE 1.31, PBLUC_R_SQUARED 0.699, read-out: LUCIFERASE INFECTION ASSAY - IC50
  pIC50: 6.38
  IC90: 2.23 µM

## N#CC(c1ccccc1)c1ccc(NC(=S)NCC2CCCO2)cc1Cl (stereo not given)
PBLUC_HILL_SLOPE 1.33, PBLUC_R_SQUARED 0.895, read-out: LUCIFERASE INFECTION ASSAY - IC50
  pIC50: 5.35
  IC90: > 10 µM

## CC(=O)NCc1ccc(C(=O)Nc2ccccc2O)cc1
PBLUC_HILL_SLOPE 1.36, PBLUC_R_SQUARED 0.725, read-out: LUCIFERASE INFECTION ASSAY - IC50
  pIC50: 5.71
  IC90: 9.91 µM

## CCSc1nccc(-c2ccc3c(c2)CCC(C)(C)O3)n1
PBLUC_HILL_SLOPE 1.33, PBLUC_R_SQUARED 0.696, read-out: LUCIFERASE INFECTION ASSAY - IC50
  pIC50: 6.19
  IC90: 3.37 µM

## CCn1c(C(=O)OC)c(NC(=O)C2CCOC2)c2cc(NCC(C)c3ccccc3)cnc21 (stereo not given)
PBLUC_HILL_SLOPE 1.36, PBLUC_R_SQUARED 0.443, read-out: LUCIFERASE INFECTION ASSAY - IC50
  pIC50: 5.26
  IC90: > 7.32 µM

## c1ccc(NCCNc2nc(-c3ccncc3)nc3ccccc23)nc1
PBLUC_HILL_SLOPE 1.36, PBLUC_R_SQUARED 0.325, read-out: LUCIFERASE INFECTION ASSAY - IC50
  pIC50: 5.29
  IC90: > 10 µM

## O=C(Nc1ccc(Oc2cc(C(F)(F)F)cc(C(F)(F)F)c2)cc1)c1cccs1
PBLUC_HILL_SLOPE 1.36, PBLUC_R_SQUARED 0.733, read-out: LUCIFERASE INFECTION ASSAY - IC50
  pIC50: 7.15
  IC90: 0.356 µM

## Cn1cc(CN2CCC3(CC2)C(=O)N(CCCc2cccnc2)C(=O)N3Cc2ccccc2)c2ccccc21
PBLUC_HILL_SLOPE 1.35, PBLUC_R_SQUARED 0.738, read-out: LUCIFERASE INFECTION ASSAY - IC50
  pIC50: 5.49
  IC90: > 6.33 µM

## CCCNC(=O)c1c(NC(=O)c2ccc(F)cc2)nc2ccc(C)cn12
PBLUC_HILL_SLOPE 1.32, PBLUC_R_SQUARED 0.773, read-out: LUCIFERASE INFECTION ASSAY - IC50
  pIC50: 5.51
  IC90: > 9.31 µM

## CC(=O)Nc1ccc(NC(=O)/C=C/c2cc(C)n(-c3ccccc3)c2C)c(C(F)(F)F)c1
PBLUC_HILL_SLOPE 1.31, PBLUC_R_SQUARED 0.816, read-out: LUCIFERASE INFECTION ASSAY - IC50
  pIC50: 5.76
  IC90: 9.3 µM

## CC(C)NC(=O)C1(C)CCN1C(=O)c1ccc(-c2ccccc2)cc1 (stereo not given)
PBLUC_HILL_SLOPE 1.28, PBLUC_R_SQUARED 0.251, read-out: LUCIFERASE INFECTION ASSAY - IC50
  pIC50: < 5.01
  IC90: > 9.81 µM

## CC(C)c1cc(Cl)n2ncc(-c3ccccc3)c2n1
PBLUC_HILL_SLOPE 1.33, PBLUC_R_SQUARED 0.849, read-out: LUCIFERASE INFECTION ASSAY - IC50
  pIC50: 5.34
  IC90: > 12.1 µM

## CCOC(=O)c1c(C)[nH]c(C(=O)Nc2ncccc2C)c1C
PBLUC_HILL_SLOPE 1.33, PBLUC_R_SQUARED 0.354, read-out: LUCIFERASE INFECTION ASSAY - IC50
  pIC50: 5.60
  IC90: > 10 µM

## OC[C@H]1O[C@@H](c2nc(-c3nc(-c4ccc5c(c4)OCO5)no3)cs2)C[C@@H]1O
PBLUC_HILL_SLOPE 1.28, PBLUC_R_SQUARED 0.808, read-out: LUCIFERASE INFECTION ASSAY - IC50
  pIC50: 6.41
  IC90: 2.15 µM

## Cc1cc(C)n2ncc(C(=O)Nc3cccc(/C=C/c4ccccn4)c3)c2n1
PBLUC_HILL_SLOPE 1.28, PBLUC_R_SQUARED 0.742, read-out: LUCIFERASE INFECTION ASSAY - IC50
  pIC50: 5.84
  IC90: 8.17 µM

## CCN(CC)CCSc1nc(-c2ccc(C)cc2)nc2c1COC(C)(C)C2
PBLUC_HILL_SLOPE 1.36, PBLUC_R_SQUARED 0.0849, read-out: LUCIFERASE INFECTION ASSAY - IC50
  pIC50: < 5.07
  IC90: > 8.56 µM

## CCc1cccc2c(C(=O)CN3CCC(C(=O)N4CCCCCC4)CC3)c[nH]c12
PBLUC_HILL_SLOPE 1.3, PBLUC_R_SQUARED 0.149, read-out: LUCIFERASE INFECTION ASSAY - IC50
  pIC50: < 5.00
  IC90: > 10 µM

## CCN(CC)Cc1nc(N2CCN(Cc3c(C)nc4ccc(C)cn34)CC2)c2c(C)c(C)sc2n1
PBLUC_HILL_SLOPE 1.28, PBLUC_R_SQUARED 0.354, read-out: LUCIFERASE INFECTION ASSAY - IC50
  pIC50: 5.25
  IC90: > 10 µM

## c1csc(SCc2ccc3nonc3c2)c1
PBLUC_HILL_SLOPE 1.33, PBLUC_R_SQUARED 0.35, read-out: LUCIFERASE INFECTION ASSAY - IC50
  pIC50: < 4.88
  IC90: > 13.3 µM

## O=C(c1c[nH]c2ccccc12)C(c1ccccc1)N1CCN(CC(=O)N2CCCC2)CC1 (stereo not given)
PBLUC_HILL_SLOPE 1.28, PBLUC_R_SQUARED 0.65, read-out: LUCIFERASE INFECTION ASSAY - IC50
  pIC50: 5.46
  IC90: > 10 µM

## COc1cc(C(=O)OCC(=O)c2ccc(-c3ccccc3)cc2)c([N+](=O)[O-])cc1OC
PBLUC_HILL_SLOPE 1.3, PBLUC_R_SQUARED 0.199, read-out: LUCIFERASE INFECTION ASSAY - IC50
  pIC50: < 5.00
  IC90: > 10 µM

## Cc1cc(CSc2ccccc2)ccc1NC(=O)Nc1ccccc1
PBLUC_HILL_SLOPE 1.29, PBLUC_R_SQUARED 0.521, read-out: LUCIFERASE INFECTION ASSAY - IC50
  pIC50: 5.65
  IC90: > 9.47 µM
